Reference: PubChem BioAssay (NCI)
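GI50 is the concentration that inhibits growth by half. TGI: concentration producing complete growth inhibition.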

Columns and labels:
Assay in all cases: inhibition of tumour cell growth, NCI panel, 384-well format
786-0 renal = tested on: 786-0 renal
A498 renal = tested on: A498 renal
A549 NSCLC = tested on: A549 NSCLC
ACHN renal = tested on: ACHN renal
BT-549 breast = tested on: BT-549 breast
CAKI-1 renal = tested on: CAKI-1 renal
CCRF-CEM leukemia = tested on: CCRF-CEM leukemia
COLO 205 colon = tested on: COLO 205 colon
DU-145 prostate = tested on: DU-145 prostate
HCC-2998 colon = tested on: HCC-2998 colon
HCT-116 colon = tested on: HCT-116 colon
HCT-15 colon = tested on: HCT-15 colon
HL-60(TB) leukemia = tested on: HL-60(TB) leukemia
HOP-62 NSCLC = tested on: HOP-62 NSCLC
HOP-92 NSCLC = tested on: HOP-92 NSCLC
HT29 colon = tested on: HT29 colon
IGROV1 ovarian = tested on: IGROV1 ovarian
K-562 leukemia = tested on: K-562 leukemia
KM12 colon = tested on: KM12 colon
LOX IMVI melanoma = tested on: LOX IMVI melanoma
M14 melanoma = tested on: M14 melanoma
MALME-3M melanoma = tested on: MALME-3M melanoma
MCF7 breast = tested on: MCF7 breast
MDA-MB-231 breast = tested on: MDA-MB-231 breast
MDA-MB-435 melanoma = tested on: MDA-MB-435 melanoma
MDA-MB-468 breast = tested on: MDA-MB-468 breast
MOLT-4 leukemia = tested on: MOLT-4 leukemia
NCI-H226 lung = tested on: NCI-H226 lung
NCI-H23 lung = tested on: NCI-H23 lung
NCI-H322M lung = tested on: NCI-H322M lung
NCI-H460 NSCLC = tested on: NCI-H460 NSCLC
NCI-H522 lung = tested on: NCI-H522 lung
NCI/ADR-RES ovarian = tested on: NCI/ADR-RES ovarian
OVCAR-3 ovarian = tested on: OVCAR-3 ovarian
OVCAR-4 ovarian = tested on: OVCAR-4 ovarian
OVCAR-5 ovarian = tested on: OVCAR-5 ovarian
OVCAR-8 ovarian = tested on: OVCAR-8 ovarian
PC-3 prostate = tested on: PC-3 prostate
RPMI-8226 leukemia = tested on: RPMI-8226 leukemia
RXF 393 renal = tested on: RXF 393 renal
SF-268 CNS = tested on: SF-268 CNS
SF-295 CNS = tested on: SF-295 CNS
SF-539 CNS = tested on: SF-539 CNS
SK-MEL-2 melanoma = tested on: SK-MEL-2 melanoma
SK-MEL-28 melanoma = tested on: SK-MEL-28 melanoma
SK-MEL-5 melanoma = tested on: SK-MEL-5 melanoma
SK-OV-3 ovarian = tested on: SK-OV-3 ovarian
SN12C renal = tested on: SN12C renal
SNB-19 CNS = tested on: SNB-19 CNS
SR leukemia = tested on: SR leukemia
SW-620 colon = tested on: SW-620 colon
T-47D breast = tested on: T-47D breast
TK-10 renal = tested on: TK-10 renal
U251 glioblastoma = tested on: U251 glioblastoma
UACC-257 melanoma = tested on: UACC-257 melanoma
UACC-62 melanoma = tested on: UACC-62 melanoma
UO-31 renal = tested on: UO-31 renal

In the case of C[C@H](CCOc1cccc(CC(=O)O)c1)N(Cc1cccc(C(F)(F)F)c1Cl)CC(c1ccccc1)c1ccccc1, the GI50 ([…]-0 renal) is reported as 4.3 µM, the TGI (786-0 renal) is reported as 15.4 µM and the GI50 (A498 renal) is reported as 4.51 µM. The TGI (A498 renal) was 15.6 µM, the GI50 (A549 NSCLC) was 3.46 µM and the TGI (A549 NSCLC) was 12 µM. The GI50 (ACHN renal) was 5 µM, the TGI (ACHN renal) was 16.1 µM and the GI50 (BT-549 breast) was 3.27 µM. It also gave a TGI (BT-549 breast) of 12.7 µM, a GI50 (CAKI-1 renal) of 6.37 µM and a TGI (CAKI-1 renal) of 18.5 µM. It also gave a GI50 (CCRF-CEM leukemia) of 1.72 µM, a TGI (CCRF-CEM leukemia) of 4.13 µM and a GI50 (COLO 205 colon) of 8.19 µM. It also gave a TGI (COLO 205 colon) of 20.5 µM, a GI50 (DU-145 prostate) of 5.06 µM and a TGI (DU-145 prostate) of 16.5 µM. The GI50 (HCC-2998 colon) was 2.58 µM, the TGI (HCC-2998 colon) was 7.25 µM and the GI50 (HCT-116 colon) was 3 µM. It also gave a TGI (HCT-116 colon) of 11.2 µM, a GI50 (HCT-15 colon) of 3.83 µM and a TGI (HCT-15 colon) of 13 µM. For the same compound, the GI50 (HL-60(TB) leukemia) was 2.26 µM, the TGI (HL-60(TB) leukemia) was 4.22 µM and the GI50 (HOP-62 NSCLC) was 3.86 µM. It also gave a TGI (HOP-62 NSCLC) of 12.9 µM, a GI50 (HOP-92 NSCLC) of 2.97 µM and a TGI (HOP-92 NSCLC) of 8.88 µM. It also gave a GI50 (HT29 colon) of 4.23 µM, a TGI (HT29 colon) of 16.2 µM and a GI50 (IGROV1 ovarian) of 5.92 µM. The TGI (IGROV1 ovarian) was 18.5 µM, the GI50 (K-562 leukemia) was 3.55 µM and the TGI (K-562 leukemia) was 13.4 µM. For the same compound, the GI50 (KM12 colon) was 3.76 µM, the TGI (KM12 colon) was 12.5 µM and the GI50 (LOX IMVI melanoma) was 4.34 µM. It also gave a TGI (LOX IMVI melanoma) of 17.5 µM, a GI50 (M14 melanoma) of 5.84 µM and a TGI (M14 melanoma) of 18.2 µM. The GI50 (MALME-3M melanoma) was 15 µM, the TGI (MALME-3M melanoma) was 28.3 µM and the GI50 (MCF7 breast) was 3.9 µM. It also gave a TGI (MCF7 breast) of 14 µM, a GI50 (MDA-MB-231 breast) of 10.2 µM and a TGI (MDA-MB-231 breast) of 21.9 µM. It also gave a GI50 (MDA-MB-435 melanoma) of 10.9 µM, a TGI (MDA-MB-435 melanoma) of 23 µM and a GI50 (MDA-MB-468 breast) of 3.06 µM. For the same compound, the TGI (MDA-MB-468 breast) was 7.76 µM, the GI50 (MOLT-4 leukemia) was 1.61 µM and the TGI (MOLT-4 leukemia) was 3.15 µM. The GI50 (NCI-H226 lung) was 4.17 µM, the TGI (NCI-H226 lung) was 15.7 µM and the GI50 (NCI-H23 lung) was 2.28 µM. For the same compound, the TGI (NCI-H23 lung) was 5.31 µM, the GI50 (NCI-H322M lung) was 4.7 µM and the TGI (NCI-H322M lung) was 17.3 µM. The GI50 (NCI-H460 NSCLC) was 3.5 µM, the TGI (NCI-H460 NSCLC) was 11.3 µM and the GI50 (NCI-H522 lung) was 2.55 µM. For the same compound, the TGI (NCI-H522 lung) was 9.37 µM, the GI50 (NCI/ADR-RES ovarian) was 3.54 µM and the TGI (NCI/ADR-RES ovarian) was 12.5 µM. It also gave a GI50 (OVCAR-3 ovarian) of 2.79 µM, a TGI (OVCAR-3 ovarian) of 7.28 µM and a GI50 (OVCAR-4 ovarian) of 5.04 µM. The TGI (OVCAR-4 ovarian) was 18.2 µM, the GI50 (OVCAR-5 ovarian) was 11.2 µM and the TGI (OVCAR-5 ovarian) was 23.3 µM. For the same compound, the GI50 (OVCAR-8 ovarian) was 4.56 µM, the TGI (OVCAR-8 ovarian) was 15.4 µM and the GI50 (PC-3 prostate) was 4.33 µM. For the same compound, the TGI (PC-3 prostate) was 13.1 µM, the GI50 (RPMI-8226 leukemia) was 1.5 µM and the TGI (RPMI-8226 leukemia) was 2.93 µM. It also gave a GI50 (RXF 393 renal) of 2.1 µM, a TGI (RXF 393 renal) of 5.24 µM and a GI50 (SF-268 CNS) of 3.04 µM. For the same compound, the TGI (SF-268 CNS) was 11 µM, the GI50 (SF-295 CNS) was 2.64 µM and the TGI (SF-295 CNS) was 7.41 µM. It also gave a GI50 (SF-539 CNS) of 3.92 µM, a TGI (SF-539 CNS) of 14.2 µM and a GI50 (SK-MEL-2 melanoma) of 14 µM. It also gave a TGI (SK-MEL-2 melanoma) of 27 µM, a GI50 (SK-MEL-28 melanoma) of 15.8 µM and a TGI (SK-MEL-28 melanoma) of 29.3 µM. The GI50 (SK-MEL-5 melanoma) was 3.29 µM, the TGI (SK-MEL-5 melanoma) was 11.1 µM and the GI50 (SK-OV-3 ovarian) was 9.13 µM. The TGI (SK-OV-3 ovarian) was 21.2 µM, the GI50 (SN12C renal) was 5.1 µM and the TGI (SN12C renal) was 16.2 µM. It also gave a GI50 (SNB-19 CNS) of 4.66 µM, a TGI (SNB-19 CNS) of 14 µM and a GI50 (SR leukemia) of 1.73 µM. For the same compound, the TGI (SR leukemia) was 3.16 µM, the GI50 (SW-620 colon) was 4.66 µM and the TGI (SW-620 colon) was 15.7 µM. For the same compound, the GI50 (T-47D breast) was 1.84 µM, the TGI (T-47D breast) was 10 µM and the GI50 (TK-10 renal) was 6.54 µM. For the same compound, the TGI (TK-10 renal) was 18.8 µM, the GI50 (U251 glioblastoma) was 2.69 µM and the TGI (U251 glioblastoma) was 7.64 µM. For the same compound, the GI50 (UACC-257 melanoma) was 3.35 µM, the TGI (UACC-257 melanoma) was 13 µM and the GI50 (UACC-62 melanoma) was 9.52 µM. For the same compound, the TGI (UACC-62 melanoma) was 21.4 µM, the GI50 (UO-31 renal) was 5.07 µM and the TGI (UO-31 renal) was 16.7 µM.
